Data from patent US7488826B2, “Substituted pyrroline kinase inhibitors” (Janssen Pharmaceutica N.V., priority 2003, dated 2009).

What was measured:
Format in all cases: biochemical
PKC-βII = PKC-βII (Homo sapiens, UniProt P05771); test: Protein Kinase C Histone-Based Assay; details: histone III substrate
Method: (§1) Compounds were evaluated for PKC isozyme selectivity using histone III as the substrate. PKC isozymes α, β-II or γ were added to a reaction mixture that contained 20 mM HEPES, (pH 7.4), 940 μM CaCl2, 10 mM MgCl2, 1 mM EGTA. 100 μg/mL phosphatidylserine, 20 μg/mL diacylglycerol, 30 μM ATP, […] [^33P]ATP and 200 μg/mL histone III. The reaction was incubated for 10 min at 30° C. Reactions were terminated by TCA precipitation and spotting on Whatman P81 filters. Filters were washed in 75 mM phosphoric acid and the radioactivity quantified by liquid scintillation counting.

PKC-α = PKC-α (Homo sapiens, UniProt P17252); test: Protein Kinase C Histone-Based Assay; details: histone III substrate
Method: as §1

PKC-γ = PKC-γ (Homo sapiens, UniProt P05129); test: Protein Kinase C Histone-Based Assay; details: histone III substrate
Method: as §1

[1] = biological target: T1, recombinant rabbit GSK-3β protein (Oryctolagus cuniculus, UniProt G1T8E2); test: Glycogen Synthase Kinase-3 Assay (33P-ATP phosphorylation of PPI-2)
T1 construct: purchased New England Biolabs
Method: Compounds were tested for the ability to inhibit recombinant rabbit GSK-3β protein using the following protocol. The test compound was added to a reaction mixture containing Protein Phosphatase Inhibitor-2 (PPI-2) (Calbiochem) (45 ng), rabbit GSK-3β protein (New England Biolabs) (0.75 units) and ^33P-ATP (1 μCi) in 50 mM Tris-HCl (pH 8.0), 10 mM MgCl2, 0.1% BSA, 1 mM DTT and 100 μM Sodium Vanadate. The mixture was reacted for 90 minutes at 30° C. to allow phosphorylation of the PPI-2 protein and then the protein in the reaction was precipitated using 10% TCA. The precipitated protein was collected on filter plates (MultiScreen-DV/Millipore), which were subsequently washed. Finally, the radioactivity was quantified using a TopCount Scintillation Counter (Packard). […] Staurosporine or Valproate, known inhibitors of GSK-3β, were used as a positive control for screening.

T1 sequence (G1T8E2 1-432): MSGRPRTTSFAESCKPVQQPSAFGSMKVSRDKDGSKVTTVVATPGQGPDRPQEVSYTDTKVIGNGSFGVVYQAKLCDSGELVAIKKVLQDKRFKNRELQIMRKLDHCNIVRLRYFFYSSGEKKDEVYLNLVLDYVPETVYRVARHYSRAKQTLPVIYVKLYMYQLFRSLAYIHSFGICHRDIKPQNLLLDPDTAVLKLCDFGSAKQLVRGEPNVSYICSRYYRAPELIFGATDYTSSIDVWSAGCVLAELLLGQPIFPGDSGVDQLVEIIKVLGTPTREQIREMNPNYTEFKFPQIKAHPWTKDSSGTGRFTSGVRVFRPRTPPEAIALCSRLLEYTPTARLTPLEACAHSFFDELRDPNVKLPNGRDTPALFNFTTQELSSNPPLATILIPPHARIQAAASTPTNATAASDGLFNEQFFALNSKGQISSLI
Chain of PKC-βII (P05771 1-673 isoform P05771-2): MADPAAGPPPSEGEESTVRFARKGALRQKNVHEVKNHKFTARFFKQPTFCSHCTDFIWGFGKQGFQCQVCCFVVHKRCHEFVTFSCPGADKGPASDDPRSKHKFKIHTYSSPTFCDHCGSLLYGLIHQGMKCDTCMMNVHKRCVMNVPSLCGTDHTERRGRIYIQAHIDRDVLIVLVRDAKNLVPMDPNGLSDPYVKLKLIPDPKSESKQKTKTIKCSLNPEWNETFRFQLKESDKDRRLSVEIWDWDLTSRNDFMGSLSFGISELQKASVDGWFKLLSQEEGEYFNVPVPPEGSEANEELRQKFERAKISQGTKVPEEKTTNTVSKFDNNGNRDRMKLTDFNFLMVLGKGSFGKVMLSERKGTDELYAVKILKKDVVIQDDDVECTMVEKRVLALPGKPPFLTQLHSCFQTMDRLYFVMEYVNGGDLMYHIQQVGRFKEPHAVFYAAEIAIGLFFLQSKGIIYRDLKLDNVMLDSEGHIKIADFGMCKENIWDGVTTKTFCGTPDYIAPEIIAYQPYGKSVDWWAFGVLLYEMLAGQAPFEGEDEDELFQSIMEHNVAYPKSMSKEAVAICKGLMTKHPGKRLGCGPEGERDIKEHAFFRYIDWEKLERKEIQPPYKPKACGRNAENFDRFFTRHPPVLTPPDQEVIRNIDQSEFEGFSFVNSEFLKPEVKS

| Structure (SMILES) | inhibition at 1 µM (PKC-βII) [%] | inhibition at 10 µM (PKC-α; @10 μM) [%] | inhibition at 10 µM (PKC-γ; @10 μM) [%] | IC50 [1] [µM] | IC50 (PKC-α) [µM] | IC50 (PKC-γ) [µM] |
| --- | --- | --- | --- | --- | --- | --- |
| COCCCn1cc(C2=C(c3ccccc3OC)C(=O)NC2=O)c2cnccc21 [Cpd 1, 3-(2-Methoxyphenyl)-4-[1-(3-methoxypropyl)-1H-pyrrolo[3,2-c]pyridin-3-yl]-1H-pyrrole-2,5-dione] | 22 | 31 | 25 | 0.0018 | – | – |
| COCCCn1cc(C2=C(c3ccccc3Cl)C(=O)NC2=O)c2cnccc21 [Cpd 2, 3-(2-Chlorophenyl)-4-[1-(3-methoxypropyl)-1H-pyrrolo[3,2-c]pyridin-3-yl]-1H-pyrrole-2,5-dione] | 28 | – | – | 0.02 | 2.51 | 4.21 |
